Laboratory results published in patent publication US6241965A, “Somatostatin derivatives and their radiolabelled products” (Diatide, Inc., priority 1996, dated 2001).
pKi: −log10 of the molar value. Starred links: 1 amine or outer side, 2 acyl side, 3 side chain; linkers in the order of their positions; H or OH if unused. Positions of bridges follow the written chain, without caps; N, C: chain ends. Non-standard residues stand in square brackets, D forms with d. Residues, ends and D or L forms follow the SMILES beside them. Chains are numbered I, II in the order given. *: point of attachment. DTPA = O=C(O)CN(CCN(CC(=O)O)CC(=O)O)CCN(CC(=O)O)CC(=O)*; X1 = O=C(C(=O)*)[C@@H](O)[C@H](O)[C@@H](O)CO; Phe(4-Cl) = N[C@@H](Cc1ccc(Cl)cc1)C(=O)O; 2Nal = N[C@@H](Cc1ccc2ccccc2c1)C(=O)O; d2Nal = N[C@H](Cc1ccc2ccccc2c1)C(=O)O; εLys = N[C@@H](CCCCN[*:1])C(=O)[*:2]; NMeF = CN[C@@H](Cc1ccccc1)C(=O)O; hCys = N[C@@H](CCS)C(=O)O; X2 = O=C(C[*:1])[*:2]; Acm = CC(=O)NC*

What follows are compounds tested against T1, somatostatin receptors (Rattus norvegicus, UniProt P30680) (assay: Inhibition of binding of (125I-Tyr11)somatostatin-14 to AR42J rat pancreatic tumor cell membranes). Conditions: (Re=O)-complexed peptides; displacement of (125I-Tyr11)somatostatin-14, AR42J cell membranes.
T1 construct: endogenous in cells; host or cells: AR42J rat pancreatic tumor cell membranes
Experimental: Inhibition of Binding of (^125 I-Tyr^11)somatostatin-14 to AR42J Rat Pancreatic Tumor Cell Membranes
The rat pancreatic tumor cell line AR42J which expresses the somatostatin receptor was cultured in Dulbecco's minimal essential media (DMEM) supplemented with 10% fetal bovine serum (FBS) and 8 mM glutamine in a humdified 5% CO2 atmosphere at 37° C. in T-flasks. Harvested cells were homogenized in cold 50 mM Tris-HCl buffer (pH 7.4) and the homogenate then centrifuged at 39,000g for 10 min at 4° C. Pellets were washed once with buffer and then resuspended in an ice-cold solution of 10mM Tris-HCl (pH 7.4). Equal aliquots of this cell membrane preparation were incubated with (^125 I-Tyr^11)somatostatin-14 (at a final concentration of 0.5nM and 750,000cpm/mL, at a specific activity of 2000Ci/mmol, Amersham, Arlington Heights, Ill.) and peptide at a final concentration of from 10^-11 M to 10^-6 M in a solution of 50 mM HEPES (pH 7.4) containing 1% bovine serum albumin (BSA), 5 mM MgCl2, Trasylol (200,000 International Units), bacitracin (0.02 mg/mL) and phenylmethylsulfonylfluoride (0.02 mg/mL) for 25 min at 30° C. Using a filtration manifold, this mixture was filtered through a polyethyleneimine-washed GC/F filter (Whatman, Maidstone, England), and the residue remaining on the filter washed thrice with 5 mL cold HEPES buffer. The filter and a sample of the filter washings were then counted in a gamma counter. To assess non-specific binding, the assay was performed in the presence of unlabeled somatostatin-14 at 200 nM. Data analysis including Hill plots of the data provided inhibition constants (see Bylund & Yamamura, "Methods of receptor binding", in Methods in Neurotransmitter Receptor Analysis, Yamamura et al., eds., Raven Press: New York, 1990).

T1 sequence (P30680 whole entry): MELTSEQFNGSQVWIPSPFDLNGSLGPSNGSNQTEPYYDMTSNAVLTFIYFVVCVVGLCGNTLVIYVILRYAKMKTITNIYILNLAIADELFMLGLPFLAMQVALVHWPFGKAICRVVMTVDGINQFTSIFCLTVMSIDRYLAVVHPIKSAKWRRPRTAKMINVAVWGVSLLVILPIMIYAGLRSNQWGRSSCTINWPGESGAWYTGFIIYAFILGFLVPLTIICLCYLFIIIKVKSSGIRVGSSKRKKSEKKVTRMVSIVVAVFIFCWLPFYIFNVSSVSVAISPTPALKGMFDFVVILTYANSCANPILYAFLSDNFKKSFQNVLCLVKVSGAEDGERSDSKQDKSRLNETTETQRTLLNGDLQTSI

| Compound | pKi |
| --- | --- |
| KD KKKFD.Cpa.YWD KTF.Nal.(ε-K)GCDDDD.amide | 8.09 |
| Hca.NalD.Cpa.YWD KTFT(ε-K)GCKK, amide | 8.10 |
| KD KK.NalD.Cpa.YWD KTFT(ε-K)GCDD.amide | 8.80 |
| KDKKK.NalD.Cpa.YWD KTFT(ε-K)GCKDKD.amide | 8.42 |
| CC(=O)NCSC[C@H](NC(=O)CNC(=O)[C@H](CSCNC(C)=O)NC(=O)[C@@H](NC(=O)[C@H](Cc1ccccc1)NC(=O)[C@@H](NC(=O)[C@H](CCCCN)NC(=O)[C@@H](Cc1c[nH]c2ccccc12)NC(=O)[C@H](Cc1ccc(O)cc1)NC(=O)[C@H](Cc1ccc(Cl)cc1)NC(=O)[C@@H](Cc1ccc2ccccc2c1)NC(=O)CN(CCN(CCN(CC(=O)O)CC(=O)O)CC(=O)O)CC(=O)O)[C@@H](C)O)[C@@H](C)O)C(N)=O [(DTPA)NalD.Cpa.YWD KTFTCAcm GCAcm.amide] ({DTPA}-[d2Nal][Phe(4-Cl)]Y[dW]KTFTC(Acm)GC(Acm)-NH2) | 8.51 |
| C[C@@H](O)[C@H](NC(=O)[C@H](Cc1ccccc1)NC(=O)[C@@H](NC(=O)[C@H](CCCCN)NC(=O)[C@@H](Cc1c[nH]c2ccccc12)NC(=O)[C@H](Cc1ccc(O)cc1)NC(=O)[C@H](Cc1ccc(Cl)cc1)NC(=O)[C@@H](Cc1ccccc1)NC(=O)C(=O)[C@@H](O)[C@H](O)[C@@H](O)CO)[C@@H](C)O)C(=O)NCCCC[C@H](N)C(=O)NCC(=O)N[C@@H](CS)C(N)=O [(2-ketogulonyl)FD.Cpa.YWD KTFT(ε-K)GC.amide] (X1-[dF][Phe(4-Cl)]Y[dW]KTFT[εLys]GC-NH2) | 8.43 |
| (DTPA).NalD.Cpa.YWD KTFT(ε-K)GC.amide | 7.96 |

Results, then the compound that gave them:

| pKi | Compound |
| --- | --- |
| 9.43 | FD.Cpa.YWD KTC(ε-K)CGC.amide |
| 8.10 | (DTPA).FD.Cpa.YWD KTFT(ε-K)GC.amide |
| 8.66 | NalD.Cpa.YWD KTFT(ε-K)GCKK.amide |
| 8.21 | Ac.FD FYWD KTFTGGG(ε-K)KC.amide |
| 8.85 | Ac.DD DFD.Cpa.YWD KTFT(ε-K)GCKK.amide |
| 9.30 | DD DFD.Cpa.YWD KTFT(ε-K)GCKK.amide |
| 9.89 | FD.Cpa.YWD KTC(ε-K)GCKK.amide |
| 8.82 | KD KK.NalD.Cpa.YWD KTFT(ε-K)GCDDD.amide |
| 9.44 | FD.Cpa.YWD KTC(ε-K)GC.amide |
| 8.09 | (DTPA).Aca.FD.Cpa.YWD KTFT(ε-K)GC.amide |

Same assay, conditions: peptides not metal-complexed; displacement of (125I-Tyr11)somatostatin-14, AR42J cell membranes

| Compound | pKi |
| --- | --- |
| KD KKK.NalD.Cpa.YWD KTFT(ε-K)GCKDKD.amide | 8.31 |
| C[C@@H](O)[C@H](NC(=O)[C@H](Cc1ccccc1)NC(=O)[C@@H](NC(=O)[C@H](CCCCN)NC(=O)[C@@H](Cc1c[nH]c2ccccc12)NC(=O)[C@H](Cc1ccc(O)cc1)NC(=O)[C@H](Cc1ccc(Cl)cc1)NC(=O)[C@@H](Cc1ccccc1)NC(=O)C(=O)[C@@H](O)[C@H](O)[C@@H](O)CO)[C@@H](C)O)C(=O)NCCCC[C@H](N)C(=O)NCC(=O)N[C@@H](CS)C(N)=O [(2-ketogulonyl)FD.Cpa.YWD KTFT(ε-K)GC.amide] (X1-[dF][Phe(4-Cl)]Y[dW]KTFT[εLys]GC-NH2) | 8.57 |
| C[C@H](N)C(=O)N[C@@H](CCCCN)C(=O)N[C@@H](CS)C(=O)NCC(=O)NCC(=O)NCC(=O)N[C@H](Cc1ccccc1)C(=O)N[C@@H](Cc1ccc(Cl)cc1)C(=O)N[C@@H](Cc1ccc(O)cc1)C(=O)N[C@H](Cc1c[nH]c2ccccc12)C(=O)N[C@@H](CCCCN)C(=O)N[C@H](C(=O)N[C@@H](Cc1ccccc1)C(=O)N[C@H](C(N)=O)[C@@H](C)O)[C@@H](C)O [AKCGGGFD.Cpa.YWD KTFT.amide] (H-AKCGGG[dF][Phe(4-Cl)]Y[dW]KTFT-NH2) | 8.85 |
| CC(C)[C@@H]1NC(=O)[C@H](CCCCN)NC(=O)[C@@H](Cc2c[nH]c3ccccc23)NC(=O)[C@H](Cc2ccc(O)cc2)NC(=O)[C@H](Cc2ccccc2)N(C)C(=O)[C@H](CCSCC(=O)NCC(=O)NCC(=O)N[C@@H](CS)C(=O)N[C@@H](CCCCN)C(=O)N[C@@H](CCCCN)C(N)=O)NC1=O [cyclo(N-Me)FYWD KV.Hcy(CH2 CO.GGCKK.amide)] (I: cyclo([NMeF]Y[dW]KV[hCys]) / II: GGCKK-NH2; linker I:6-II:N via X2) | 9.59 |
| CC(C)[C@H](NC(=O)[C@H](CCCCN)NC(=O)[C@@H](Cc1c[nH]c2ccccc12)NC(=O)[C@H](Cc1ccc(O)cc1)NC(=O)[C@H](CS)NC(=O)[C@@H](Cc1ccc2ccccc2c1)NC(=O)CN(CCN(CCN(CC(=O)O)CC(=O)N[C@H](Cc1ccc2ccccc2c1)C(=O)N[C@@H](CS)C(=O)N[C@@H](Cc1ccc(O)cc1)C(=O)N[C@H](Cc1c[nH]c2ccccc12)C(=O)N[C@@H](CCCCN)C(=O)N[C@H](C(=O)N[C@@H](CS)C(=O)N[C@H](C(N)=O)[C@@H](C)O)C(C)C)CC(=O)O)CC(=O)O)C(=O)N[C@@H](CS)C(=O)N[C@H](C(N)=O)[C@@H](C)O [(DTPA)(NalD.CYWD KVCT)2] | 8.14 |

More lines, now with the values ahead:

| pKi | Compound |
| --- | --- |
| 8.32 | C[C@@H](O)[C@H](NC(=O)[C@H](Cc1ccccc1)NC(=O)[C@@H](NC(=O)[C@H](CCCCN)NC(=O)[C@@H](Cc1c[nH]c2ccccc12)NC(=O)[C@H](Cc1ccc(O)cc1)NC(=O)[C@H](Cc1ccc(Cl)cc1)NC(=O)[C@H](N)Cc1ccccc1)[C@@H](C)O)C(=O)N[C@@H](CS)C(=O)NCC(=O)N[C@@H](CS)C(N)=O [FD.Cpa.YWD KTFTCGC.amide] (H-[dF][Phe(4-Cl)]Y[dW]KTFTCGC-NH2) |
| 8.70 | C[C@@H](O)[C@H](NC(=O)[C@H](Cc1ccc2ccccc2c1)NC(=O)[C@@H](NC(=O)[C@H](CCCCN)NC(=O)[C@@H](Cc1c[nH]c2ccccc12)NC(=O)[C@H](Cc1ccc(O)cc1)NC(=O)[C@H](Cc1ccc(Cl)cc1)NC(=O)[C@@H](Cc1ccc2ccccc2c1)NC(=O)CN(CCN(CCN(CC(=O)O)CC(=O)O)CC(=O)O)CC(=O)O)[C@@H](C)O)C(=O)NCCCC[C@H](N)C(=O)NCC(=O)N[C@@H](CS)C(=O)N[C@@H](CCCCN)C(=O)N[C@@H](CCCCN)C(N)=O [(DTPA)NalD.Cpa.YWD KT.Nal.T(ε-K)GCKK.amide] ({DTPA}-[d2Nal][Phe(4-Cl)]Y[dW]KT[2Nal]T[εLys]GCKK-NH2) |
